Test results taken from ChEMBL document CHEMBL4507264, “Data for DCP probe BAY-7598” (2021).

Experiments:
[1] = target: Ribosomal protein S6 kinase alpha-5 (Homo sapiens) (UniProt O75582); details: Compound concentration 1000.0 nM
[2] = target: Tyrosine-protein kinase Lyn (Homo sapiens) (UniProt P07948); details: Compound concentration 1000.0 nM
[3] = target: Casein kinase I isoform alpha-like (Homo sapiens) (UniProt Q8N752); details: Compound concentration 1000.0 nM
[4] = target: Alpha-2C adrenergic receptor (Homo sapiens) (UniProt P18825); details: Compound concentration 10.0 uM
[5] = target: Mitogen-activated protein kinase kinase kinase 20 (Homo sapiens) (UniProt Q9NYL2); details: Compound concentration 1000.0 nM
[6] = target: Serine/threonine-protein kinase NIM1 (Homo sapiens) (UniProt Q8IY84); details: Compound concentration 1000.0 nM
[7] = target: Testis-specific serine/threonine-protein kinase 1 (Homo sapiens) (UniProt Q9BXA7); details: Compound concentration 1000.0 nM
[8] = target: Calcium/calmodulin-dependent protein kinase kinase 2 (Homo sapiens) (UniProt Q96RR4); details: Compound concentration 1000.0 nM
[9] = target: Testis-specific serine/threonine-protein kinase 3 (Homo sapiens) (UniProt Q96PN8); details: Compound concentration 1000.0 nM
[10] = target: Mitogen-activated protein kinase 8 (Homo sapiens) (UniProt P45983); details: Compound concentration 1000.0 nM
[11] = target: Cyclin-dependent kinase 4 (Homo sapiens) (UniProt P11802); details: Compound concentration 1000.0 nM
[12] = target: Serine/threonine-protein kinase N2 (Homo sapiens) (UniProt Q16513); details: Compound concentration 1000.0 nM
[13] = target: Serine/threonine-protein kinase D1 (Homo sapiens) (UniProt Q15139); details: Compound concentration 1000.0 nM
[14] = target: Phosphatidylinositol 4,5-bisphosphate 3-kinase catalytic subunit delta isoform (Homo sapiens) (UniProt O00329); details: Compound concentration 1000.0 nM
[15] = target: Dual specificity mitogen-activated protein kinase kinase 1 (Homo sapiens) (UniProt Q02750); details: Compound concentration 1000.0 nM
[16] = target: Insulin-like growth factor 1 receptor (Homo sapiens) (UniProt P08069); details: Compound concentration 1000.0 nM
[17] = target: Cyclin-G-associated kinase (Homo sapiens) (UniProt O14976); details: Compound concentration 1000.0 nM
[18] = target: Serine/threonine-protein kinase RIO2 (Homo sapiens) (UniProt Q9BVS4); details: Compound concentration 1000.0 nM
[19] = target: Serine/threonine-protein kinase RIO1 (Homo sapiens) (UniProt Q9BRS2); details: Compound concentration 1000.0 nM
[20] = target: Receptor tyrosine-protein kinase erbB-3 (Homo sapiens) (UniProt P21860); details: Compound concentration 1000.0 nM
[21] = target: Dual specificity protein kinase CLK2 (Homo sapiens) (UniProt P49760); details: Compound concentration 1000.0 nM
[22] = target: Serine/threonine-protein kinase pim-3 (Homo sapiens) (UniProt Q86V86); details: Compound concentration 1000.0 nM
[23] = target: Mitogen-activated protein kinase kinase kinase 13 (Homo sapiens) (UniProt O43283); details: Compound concentration 1000.0 nM
[24] = target: Macrophage colony-stimulating factor 1 receptor (Homo sapiens) (UniProt P07333); details: Compound concentration 1000.0 nM
[25] = target: Tyrosine-protein kinase ABL1 (Homo sapiens) (UniProt P00519); details: Compound concentration 1000.0 nM
[26] = target: Serine/threonine-protein kinase ICK (Homo sapiens) (UniProt Q9UPZ9); details: Compound concentration 1000.0 nM
[27] = target: Histamine H1 receptor (Homo sapiens) (UniProt P35367); details: Compound concentration 10.0 uM
[28] = target: Serine/threonine-protein kinase Nek10 (Homo sapiens) (UniProt Q6ZWH5); details: Compound concentration 1000.0 nM
[29] = target: Phosphatidylinositol 4,5-bisphosphate 3-kinase catalytic subunit beta isoform (Homo sapiens) (UniProt P42338); details: Compound concentration 1000.0 nM
[30] = target: Bone morphogenetic protein receptor type-2 (Homo sapiens) (UniProt Q13873); details: Compound concentration 1000.0 nM
[31] = target: Cyclin-dependent kinase 15 (Homo sapiens) (UniProt Q96Q40); details: Compound concentration 1000.0 nM
[32] = target: 5'-AMP-activated protein kinase catalytic subunit alpha-2 (Homo sapiens) (UniProt P54646); details: Compound concentration 1000.0 nM
[33] = target: Serine/threonine-protein kinase pim-1 (Homo sapiens) (UniProt P11309); details: Compound concentration 1000.0 nM
[34] = target: Phosphatidylinositol 4-kinase beta (Homo sapiens) (UniProt Q9UBF8); details: Compound concentration 1000.0 nM
[35] = test system: Fibroblast growth factor receptor 3 (Homo sapiens), P22607 [G697C]; details: Compound concentration 1000.0 nM
[36] = target: Phosphatidylinositol 5-phosphate 4-kinase type-2 gamma (Homo sapiens) (UniProt Q8TBX8); details: Compound concentration 1000.0 nM
[37] = target: Mast/stem cell growth factor receptor Kit (Homo sapiens) (UniProt P10721); details: Compound concentration 1000.0 nM
[38] = test system: Epidermal growth factor receptor (Homo sapiens), P00533 [L858R,T790M]; details: Compound concentration 1000.0 nM
[39] = target: Interleukin-1 receptor-associated kinase 3 (Homo sapiens) (UniProt Q9Y616); details: Compound concentration 1000.0 nM
[40] = target: Serine/threonine-protein kinase VRK2 (Homo sapiens) (UniProt Q86Y07); details: Compound concentration 1000.0 nM
[41] = test system: Tyrosine-protein kinase ABL1 (Homo sapiens), P00519 [F317I]; details: Compound concentration 1000.0 nM
[42] = target: Serine/threonine-protein kinase 24 (Homo sapiens) (UniProt Q9Y6E0); details: Compound concentration 1000.0 nM
[43] = target: Phosphorylase b kinase gamma catalytic chain, skeletal muscle/heart isoform (Homo sapiens) (UniProt Q16816); details: Compound concentration 1000.0 nM
[44] = test system: Hepatocyte growth factor receptor (Homo sapiens), P08581 [Y1235D]; details: Compound concentration 1000.0 nM
[45] = test system: Receptor-type tyrosine-protein kinase FLT3 (Homo sapiens), P36888 [UNDEFINED MUTATION]; details: Compound concentration 1000.0 nM

Phosphatidylinositol 5-phosphate 4-kinase type-2 gamma (Homo sapiens), sequence (Q8TBX8 whole entry): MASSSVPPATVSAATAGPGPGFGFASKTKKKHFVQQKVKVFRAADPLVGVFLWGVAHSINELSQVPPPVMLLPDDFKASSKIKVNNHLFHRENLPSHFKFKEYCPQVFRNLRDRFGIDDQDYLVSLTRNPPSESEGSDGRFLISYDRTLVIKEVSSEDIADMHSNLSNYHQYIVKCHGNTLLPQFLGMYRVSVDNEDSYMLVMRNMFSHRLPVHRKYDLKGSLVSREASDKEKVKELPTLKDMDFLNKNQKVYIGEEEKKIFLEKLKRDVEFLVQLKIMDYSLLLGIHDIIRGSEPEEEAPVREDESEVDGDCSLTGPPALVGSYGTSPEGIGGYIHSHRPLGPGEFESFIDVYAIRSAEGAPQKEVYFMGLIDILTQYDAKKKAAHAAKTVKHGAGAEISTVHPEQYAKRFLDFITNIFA
Histamine H1 receptor (Homo sapiens), sequence (P35367 whole entry): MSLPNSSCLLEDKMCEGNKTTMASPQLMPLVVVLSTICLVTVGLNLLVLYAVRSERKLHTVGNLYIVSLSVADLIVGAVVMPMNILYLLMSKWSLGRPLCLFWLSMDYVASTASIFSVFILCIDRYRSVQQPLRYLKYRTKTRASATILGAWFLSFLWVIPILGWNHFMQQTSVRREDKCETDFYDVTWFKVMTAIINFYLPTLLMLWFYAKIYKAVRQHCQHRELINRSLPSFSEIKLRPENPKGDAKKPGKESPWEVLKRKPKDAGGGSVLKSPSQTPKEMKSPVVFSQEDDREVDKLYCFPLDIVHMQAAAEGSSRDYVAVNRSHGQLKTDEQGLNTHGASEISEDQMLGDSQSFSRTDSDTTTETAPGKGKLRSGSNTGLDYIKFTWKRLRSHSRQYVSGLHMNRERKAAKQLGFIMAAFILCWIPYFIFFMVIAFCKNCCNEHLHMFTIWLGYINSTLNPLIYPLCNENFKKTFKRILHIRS
Tyrosine-protein kinase ABL1 (Homo sapiens), P00519 [F317I], sequence (P00519 whole entry F317I): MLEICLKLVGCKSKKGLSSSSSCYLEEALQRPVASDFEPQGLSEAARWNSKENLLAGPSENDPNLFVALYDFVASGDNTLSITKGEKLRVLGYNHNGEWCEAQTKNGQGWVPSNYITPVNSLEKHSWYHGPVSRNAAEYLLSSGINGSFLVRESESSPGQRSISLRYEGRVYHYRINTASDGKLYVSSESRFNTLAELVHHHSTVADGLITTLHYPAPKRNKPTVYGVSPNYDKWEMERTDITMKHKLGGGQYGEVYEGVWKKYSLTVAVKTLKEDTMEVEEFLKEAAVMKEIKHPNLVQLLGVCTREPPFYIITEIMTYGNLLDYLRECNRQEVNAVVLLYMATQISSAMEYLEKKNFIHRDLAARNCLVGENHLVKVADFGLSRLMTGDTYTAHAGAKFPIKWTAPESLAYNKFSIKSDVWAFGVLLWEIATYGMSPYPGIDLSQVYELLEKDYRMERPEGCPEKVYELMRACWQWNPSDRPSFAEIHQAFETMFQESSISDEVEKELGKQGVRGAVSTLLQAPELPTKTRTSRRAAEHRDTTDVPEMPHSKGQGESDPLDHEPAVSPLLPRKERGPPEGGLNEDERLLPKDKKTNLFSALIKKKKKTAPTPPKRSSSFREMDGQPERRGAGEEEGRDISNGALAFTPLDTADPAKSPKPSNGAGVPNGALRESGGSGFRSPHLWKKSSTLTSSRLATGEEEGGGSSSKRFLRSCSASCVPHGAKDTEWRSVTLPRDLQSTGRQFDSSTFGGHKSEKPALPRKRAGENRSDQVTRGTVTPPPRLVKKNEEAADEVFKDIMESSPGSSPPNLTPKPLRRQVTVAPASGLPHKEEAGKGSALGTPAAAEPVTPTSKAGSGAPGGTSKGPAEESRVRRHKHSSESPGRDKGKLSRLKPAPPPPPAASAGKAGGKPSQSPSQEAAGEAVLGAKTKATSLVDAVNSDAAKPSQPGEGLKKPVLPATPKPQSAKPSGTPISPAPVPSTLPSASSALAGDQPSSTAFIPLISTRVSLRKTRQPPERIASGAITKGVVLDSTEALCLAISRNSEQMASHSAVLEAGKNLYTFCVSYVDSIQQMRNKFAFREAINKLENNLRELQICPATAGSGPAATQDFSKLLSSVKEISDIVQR
Testis-specific serine/threonine-protein kinase 3 (Homo sapiens), sequence (Q96PN8 whole entry): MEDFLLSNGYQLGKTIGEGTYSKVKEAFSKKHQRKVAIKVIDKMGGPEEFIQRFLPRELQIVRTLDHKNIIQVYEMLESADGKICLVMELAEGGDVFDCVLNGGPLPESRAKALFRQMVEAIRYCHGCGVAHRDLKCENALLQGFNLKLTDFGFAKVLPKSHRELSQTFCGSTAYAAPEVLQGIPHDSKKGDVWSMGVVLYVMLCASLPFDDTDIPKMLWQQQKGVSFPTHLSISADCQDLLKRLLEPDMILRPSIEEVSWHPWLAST
Serine/threonine-protein kinase RIO1 (Homo sapiens), sequence (Q9BRS2 whole entry): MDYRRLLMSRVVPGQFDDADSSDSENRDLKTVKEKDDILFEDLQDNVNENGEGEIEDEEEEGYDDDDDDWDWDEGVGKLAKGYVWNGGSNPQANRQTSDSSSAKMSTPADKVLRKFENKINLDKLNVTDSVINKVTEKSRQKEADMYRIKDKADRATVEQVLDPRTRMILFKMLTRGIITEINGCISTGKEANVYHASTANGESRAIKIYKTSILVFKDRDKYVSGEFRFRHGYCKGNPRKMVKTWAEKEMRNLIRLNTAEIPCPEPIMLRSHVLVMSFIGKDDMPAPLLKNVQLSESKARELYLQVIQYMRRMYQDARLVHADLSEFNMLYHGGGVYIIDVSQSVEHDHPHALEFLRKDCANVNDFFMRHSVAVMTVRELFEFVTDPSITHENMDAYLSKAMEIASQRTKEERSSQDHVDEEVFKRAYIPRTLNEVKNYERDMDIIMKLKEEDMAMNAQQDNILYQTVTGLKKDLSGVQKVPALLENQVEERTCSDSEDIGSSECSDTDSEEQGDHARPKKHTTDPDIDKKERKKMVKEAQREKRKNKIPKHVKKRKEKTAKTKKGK
Tyrosine-protein kinase Lyn (Homo sapiens), sequence (P07948 2-512 limits assumed): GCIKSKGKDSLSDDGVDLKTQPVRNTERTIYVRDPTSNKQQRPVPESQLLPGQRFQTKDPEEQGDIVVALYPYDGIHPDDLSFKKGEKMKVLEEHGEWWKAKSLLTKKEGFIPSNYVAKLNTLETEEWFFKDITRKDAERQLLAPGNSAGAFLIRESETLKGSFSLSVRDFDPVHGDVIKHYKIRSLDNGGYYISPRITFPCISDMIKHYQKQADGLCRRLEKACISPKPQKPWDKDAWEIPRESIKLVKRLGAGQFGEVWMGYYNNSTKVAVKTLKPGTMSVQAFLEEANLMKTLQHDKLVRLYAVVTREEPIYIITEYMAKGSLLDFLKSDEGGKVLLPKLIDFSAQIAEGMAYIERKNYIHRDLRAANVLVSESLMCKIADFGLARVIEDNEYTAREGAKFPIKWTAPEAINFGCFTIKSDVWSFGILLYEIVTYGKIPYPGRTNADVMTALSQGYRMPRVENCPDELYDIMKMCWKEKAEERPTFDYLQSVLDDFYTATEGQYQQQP
Casein kinase I isoform alpha-like (Homo sapiens), sequence (Q8N752 whole entry, canonical isoform): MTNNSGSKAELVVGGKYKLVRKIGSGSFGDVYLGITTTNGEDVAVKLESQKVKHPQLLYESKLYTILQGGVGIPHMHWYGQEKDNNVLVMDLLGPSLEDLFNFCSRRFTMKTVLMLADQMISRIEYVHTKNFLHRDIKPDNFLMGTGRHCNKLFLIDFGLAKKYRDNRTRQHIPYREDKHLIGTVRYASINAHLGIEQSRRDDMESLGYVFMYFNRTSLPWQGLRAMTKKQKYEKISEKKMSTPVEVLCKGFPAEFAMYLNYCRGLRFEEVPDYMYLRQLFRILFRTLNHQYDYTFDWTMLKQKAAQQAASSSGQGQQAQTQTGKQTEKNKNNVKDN
Phosphatidylinositol 4,5-bisphosphate 3-kinase catalytic subunit delta isoform (Homo sapiens), sequence (O00329 whole entry, canonical isoform): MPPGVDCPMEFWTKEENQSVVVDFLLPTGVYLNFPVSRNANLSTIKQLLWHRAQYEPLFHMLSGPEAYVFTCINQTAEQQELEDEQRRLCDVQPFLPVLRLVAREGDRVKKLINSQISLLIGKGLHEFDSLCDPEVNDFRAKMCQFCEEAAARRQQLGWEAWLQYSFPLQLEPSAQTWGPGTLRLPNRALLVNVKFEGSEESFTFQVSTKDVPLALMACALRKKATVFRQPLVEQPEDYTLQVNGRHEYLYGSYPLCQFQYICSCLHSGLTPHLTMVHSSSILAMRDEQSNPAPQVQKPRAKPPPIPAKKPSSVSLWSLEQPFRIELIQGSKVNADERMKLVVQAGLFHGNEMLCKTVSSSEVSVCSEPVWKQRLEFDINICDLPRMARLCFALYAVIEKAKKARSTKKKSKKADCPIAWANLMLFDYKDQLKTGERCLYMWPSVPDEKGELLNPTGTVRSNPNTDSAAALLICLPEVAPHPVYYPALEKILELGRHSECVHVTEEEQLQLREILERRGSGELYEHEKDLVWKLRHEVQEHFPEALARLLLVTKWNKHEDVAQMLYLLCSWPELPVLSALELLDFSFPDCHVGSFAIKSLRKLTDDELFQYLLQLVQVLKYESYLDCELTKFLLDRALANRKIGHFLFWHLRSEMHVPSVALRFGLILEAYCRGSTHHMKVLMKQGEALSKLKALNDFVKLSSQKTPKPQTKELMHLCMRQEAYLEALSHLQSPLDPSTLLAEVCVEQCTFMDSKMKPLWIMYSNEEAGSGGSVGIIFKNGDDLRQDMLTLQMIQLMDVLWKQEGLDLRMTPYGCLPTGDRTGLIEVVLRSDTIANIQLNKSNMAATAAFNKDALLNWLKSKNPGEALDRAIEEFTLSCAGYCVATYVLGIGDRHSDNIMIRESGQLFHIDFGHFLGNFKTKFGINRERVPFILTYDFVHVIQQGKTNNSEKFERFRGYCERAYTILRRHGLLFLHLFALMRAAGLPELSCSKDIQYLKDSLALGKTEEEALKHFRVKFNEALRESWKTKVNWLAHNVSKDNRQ
Tyrosine-protein kinase ABL1 (Homo sapiens), sequence (P00519 whole entry): as the sequence (P00519 whole entry F317I) above, with I317F counted along it

O=C(O)[C@@H]1[C@@H](Cn2nnc3ccccc3c2=O)CC[C@H]1C(=O)c1ccc(OCCC2CCOCC2)cc1 [BAY-694]
inactive: residual activity [1] 100% | residual activity [2] 97% | residual activity [3] 100% | inhibition [4] 13.1% | residual activity [5] 91% | residual activity [6] 73% | residual activity [7] 100% | residual activity [8] 100% | residual activity [9] 100% | residual activity [10] 100% | residual activity [11] 86% | residual activity [12] 100% | residual activity [13] 100% | residual activity [14] 99% | residual activity [15] 81% | residual activity [16] 100% | residual activity [17] 91% | residual activity [18] 88% | residual activity [19] 100% | residual activity [20] 94% | residual activity [21] 100% | residual activity [22] 84% | residual activity [23] 70% | residual activity [24] 100% | residual activity [25] 95% | residual activity [26] 97% | inhibition [27] 1.6% | residual activity [28] 88% | residual activity [29] 66% | residual activity [30] 98% | residual activity [31] 100% | residual activity [32] 100% | residual activity [33] 100% | residual activity [34] 83% | residual activity [35] 92% | residual activity [36] 89% | residual activity [37] 89% | residual activity [38] 76% | residual activity [39] 100% | residual activity [40] 80% | residual activity [41] 82% | residual activity [42] 99% | residual activity [43] 100% | residual activity [44] 98% | residual activity [45] 100%

O=C(O)[C@H]1[C@H](Cn2nnc3ccccc3c2=O)CC[C@@H]1C(=O)c1ccc(OCCC2CCOCC2)cc1 [BAY-7598]
inactive: residual activity [1] 100% | residual activity [2] 92% | residual activity [3] 100% | inhibition [4] 8.3% | residual activity [5] 100% | residual activity [6] 93% | residual activity [7] 73% | residual activity [8] 90% | residual activity [9] 85% | residual activity [10] 72% | residual activity [11] 96% | residual activity [12] 76% | residual activity [13] 85% | residual activity [14] 89% | residual activity [15] 100% | residual activity [16] 100% | residual activity [17] 100% | residual activity [18] 100% | residual activity [19] 100% | residual activity [20] 69% | residual activity [21] 100% | residual activity [22] 86% | residual activity [23] 96% | residual activity [24] 81% | residual activity [25] 80% | residual activity [26] 98% | inhibition [27] -8.85% | residual activity [28] 69% | residual activity [29] 80% | residual activity [30] 100% | residual activity [31] 100% | residual activity [32] 100% | residual activity [33] 95% | residual activity [34] 93% | residual activity [35] 100% | residual activity [36] 100% | residual activity [37] 95% | residual activity [38] 64% | residual activity [39] 77% | residual activity [40] 80% | residual activity [41] 86% | residual activity [42] 90% | residual activity [43] 74% | residual activity [44] 100% | residual activity [45] 87%
